Measurements as given in patent US20240216320A1, “COMPOSITIONS AND METHODS FOR TREATING SICKLE CELL DISEASE” (Augusta University Research Institute, Inc., priority 2019, published 2024).

How the values were obtained:
[1] = tested on: γ-globin mRNA in K562 cells; test: γ-globin transcription by RT-qPCR in K562 cells; type: cell-based; conditions: 48 h; for increase in γ-globin mRNA levels: 0.125 mM
Method: Initial studies were conducted in K562 cells to determine the ability of AN-233 to induce γ-globin transcription and HbF expression. K562 cells display characteristics of erythroid cells including expression of the ε, γ and α globin genes and these cells are useful for initial drug screening and discovery of potential HbF inducers.
K562 cells were treated with AN-233 for 48 h and globin gene transcription was analyzed by RT-qPCR. […]
(§1) K562 cells were cultured in Iscove's Modified Dulbecco medium (IMDM) with 10% fetal bovine serum, penicillin (100 U/mL) and streptomycin (0.1 mg/mL). Drug inductions for K562 cells were conducted for 48 h and cell viability evaluated with 0.4% Trypan blue exclusion. Cell counts were performed a dual chamber apparatus and the percentage viability obtained using an Automated Cell Counter (Bio-Rad).
Total RNA was extracted from cells using Trizol (Ambion, Carlsbad CA) and analyzed by RT-qPCR as previously published by our group. Gene-specific primers were used to quantify mRNA levels for γ-globin, β-globin and internal control glyceraldehyde-3-phosphate de-hydrogenase (GAPDH). All mRNA levels were normalized to GAPDH before analysis.

[2] = tested on: HbF in K562 cells; test: Western blot of HbF levels in K562 cells; type: cell-based; conditions: 48 h, AN-233 dose-dependent
Method: as §1
Western blot analysis was performed using whole cell lysates generated with RIPA buffer (ThermoScientific, Rockford, IL) supplemented with proteinase and phosphatase inhibitor cocktails. For histone acetylation studies, nuclear lysates were prepared by suspending cells in buffer containing 20 mM HEPES, pH 7.9, 50 mM KCl, 420 mM NaCl, 0.1 mM EDTA, 1 mM DTT, 10% glycerol and protease inhibitor mixture for 30 min, followed by centrifugation. Antibodies against HbF (51-7), HbA (37-8), and Tata binding protein (TBP; N-12) were purchased from Santa Cruz Biotechnology (Dallas TX); antibodies against β-actin (A5316) and rabbit IgG (18140) were purchased from Sigma (St. Louis MO). Acetylated histone H3 (AcH3; 06-599) and AcH4 (06-866) antibodies were purchased from Millipore (Burlington, MA).

[3] = tested on: intracellular heme in K562 cells; test: QuantiChrom heme quantitation assay in K562 cells; type: cell-based; conditions: ALA 0.5 and 2.0 mM, hemin 75 μM
Method: The total cellular heme content was determined using the QuantiChrom™ Heme Assay Kit (DIHM-250, BioAssay Systems, Hayward, CA) per the manufacturer's instructions. Briefly, 25 μL of cellular lysate was mixed with 100 μL of detection reagent. The mixture was incubated at room temperature for 5 min followed by measuring the absorbance at 400 nm on a microplate reader. The total heme concentration was calculated based on a formula provided by the manufacturer: Heme concentration=(OD^sample−OD^blank)/(OD^calibrator−OD^blank)×125× dilution factor. This value was normalized by total protein in each sample.

[4] = tested on: β-YAC transgenic mice; test: Toxicity, body weight, blood counts and reticulocytes in β-YAC transgenic mice; conditions: β-YAC mice
Method: The β-YAC is a transgenic mouse model containing the full-length 81 kb human β-globin gene locus including the LCR and surrounding region. The five functional human globin genes 5′-ε-Gγ-Aγ-[…]-β-3′ are present and undergo normal developmental regulation with the γ-globin gene silenced shortly after birth. β-YAC mice (5-6 months old) were administered AN-233 suspended in water (200 or 300 mg/kg) 5 days/week for 4 weeks by intraperitoneal injection; five mice per group with 3 males and 2 females were treated. Hydroxyurea (100 mg/kg) was included as a positive control. Blood was collected by tail bleed at week 0, 2 and 4 and analyzed for automated complete blood counts with differential using a Micros 60 machine (HORIBA Medical/ABX Diagnostics). The level of F-cells and MFI were performed by flow cytometry. For reticulocyte counts, whole blood was stained with acridine orange and flow cytometry performed on an LSR-II flow cytometer (BD Biosciences).

[5] = tested on: HbF in sickle erythroid precursors; test: F-cells and HbF MFI by flow cytometry in sickle erythroid precursors; type: cell-based, human
Method: (§2) For primary cultures, erythroid precursors were generated from peripheral blood mononuclear cells isolated from discard blood of sickle patients under an IRB exempt protocol. These cells were cultured in a two-phase liquid culture system previously published (Li, B., et al., Haematologica 103:e384-e387 (2018)).
(§3) During phase 1, cells were grown in Iscove's Dulecco Media with 15% fetal bovine serum, 15% human AB serum, 10 ng/mL interleukin-3, 50 ng/mL stem cell factor and 2 IU/mL of erythropoietin (Peprotech, Rocky Hill NJ). Phase 2 of culture initiated on day 7 with a similar medium without stem cell factor and interleukin-3. On day 8, erythroid precursors were treated with AN-233 (0.125 mM and 0.25 mM), ethanol (EtOH; […] and 0.016%) and the positive control HU (100 μM) for 48 h and harvested for the various analyses.
(§4) To measure percent HbF positive cells (F-cells), K562 cells and erythroid precursors were fixed with 1% formaldehyde, permeabilized with ice-cold acetone:methanol (4:1 ratio) and stained with fluorescein isothiocyanate (FITC) anti-HbF antibody (ab19365, Abcam Cambridge MA) and isotype control IgG antibody (MBS524511, MyBioSource, San Diego CA) was used to detect non-specific staining. The F-cells levels and HbF protein levels measured by mean fluorescence intensity (MFI) were analyzed on an LSR-II flow cytometer (BD Biosciences, San Jose CA) and FlowJo analysis to generate quantitative data.

[6] = tested on: sickle erythroid precursors; test: In vitro sickling assay under 2% oxygen; type: cell-based, human
Method: In vitro sickling studies were conducted as previously published by our group (Zhu, X., et al., Blood, 131:558-562 (2018)). Briefly, after drug inductions of sickle erythroid pre-cursors for 48 h, cells were incubated in 2% oxygen overnight and then fixed with 2% formaldehyde. Erythroid morphology was evaluated microscopically and the number of sickled cells per high power field manually counted for 1000 cells, per triplicates per condition.

[7] = tested on: HbF in K562 cells; test: HbF positive cells (F-cells) by flow cytometry in K562 cells; type: cell-based; conditions: pretreatment with SB203580 10 μM followed by 0.25 mM AN-233
Method: as §1, §4

[8] = tested on: HbF in sickle erythroid precursors; test: Western blot of HbF in sickle erythroid precursors; type: cell-based, human; conditions: SB203580 treatment with 0.25 mM AN-233
Method: as §2, §3
Western blot analysis was performed using whole cell lysates generated with RIPA buffer (ThermoScientific, Rockford, IL) supplemented with proteinase and phosphatase inhibitor cocktails. For histone acetylation studies, nuclear lysates were prepared by suspending cells in buffer containing 20 mM HEPES, pH 7.9, 50 mM KCl, 420 mM NaCl, 0.1 mM EDTA, 1 mM DTT, 10% glycerol and protease inhibitor mixture for 30 min, followed by centrifugation. […]

[9] = tested on: HbF in patients with β-thalassemia; conditions: cited from earlier work

NCC(=O)CCC(=O)O [ALA, δ-aminolevulinate]
increase in γ-globin mRNA levels [1]: 1.5 fold | increase in HbF by Western blot [2]: 6 fold | heme levels in control experiments [3]: increased heme levels

CCCC(=O)O [BA, butyric acid]
increase in γ-globin mRNA levels [1]: 3 fold | increase in HbF by Western blot [2]: 2 fold

NC(=O)NO [HU, hydroxyurea]
blood counts (Hb, hematocrit, white blood cells, platelets) ([4]; 4-week treatment, AN-233 at both doses, HU 100 mg/kg): decreased total Hb, hematocrit, and white blood cell and platelet counts | increase in reticulocytes ([4]; HU 100 mg/kg ip, week 4, p=0.002): 1.9 fold | body weights ([4]; ip, 4 weeks of treatment, all groups): normal body weights were maintained | γ-globin mRNA induction ([1]; HU control): 1.7 fold | HbF measured by MFI, compared with AN-233 ([5]; sickle erythroid precursors, HU 100 μM): comparable | anti-sickling effect, compared with AN-233 ([6]; 2% oxygen overnight, HU): similar

C[S+]([O-])c1ccc(-c2nc(-c3ccncc3)c(-c3ccc(F)cc3)[nH]2)cc1 (centres unmarked) [SB203580, reference compound]
decrease in F-cell levels [7]: 30% | effect on AN-233 HbF protein increase by Western blot [8]: inhibited | effect of pretreatment on F-cells and MFI ([5]; SB203580 pretreatment, at both AN-233 concentrations): reduced F-cells and MFI levels | sickled erythroid progenitor levels after pretreatment ([6]; SB203580 pretreatment before AN-233, 2% oxygen): higher sickled erythroid progenitor levels

CCC(C)(C)C(=O)[O-].[Na+] [sodium dimethylbutyrate]
patients with HbF induction [9]: 70 % of patients

hemin [reference compound]
heme levels in control experiments [3]: increased heme levels
